# Literature values in paper PMC9773016, “Strebluses E–H, four new stilbene-like derivatives from the stems of Streblus ilicifolius” (RSC Advances, 2022).
# pIC50: −log10 of the molar value.
# Target: Mushroom tyrosinase (Agaricus bisporus, UniProt C7FF04)
# Parameters: method as in PMID 34306141, PMID 33939585
# Settings: value from previous study of the same authors; read-out: tyrosinase inhibitory effect IC50
# Sequence of Mushroom tyrosinase (C7FF04 1-392): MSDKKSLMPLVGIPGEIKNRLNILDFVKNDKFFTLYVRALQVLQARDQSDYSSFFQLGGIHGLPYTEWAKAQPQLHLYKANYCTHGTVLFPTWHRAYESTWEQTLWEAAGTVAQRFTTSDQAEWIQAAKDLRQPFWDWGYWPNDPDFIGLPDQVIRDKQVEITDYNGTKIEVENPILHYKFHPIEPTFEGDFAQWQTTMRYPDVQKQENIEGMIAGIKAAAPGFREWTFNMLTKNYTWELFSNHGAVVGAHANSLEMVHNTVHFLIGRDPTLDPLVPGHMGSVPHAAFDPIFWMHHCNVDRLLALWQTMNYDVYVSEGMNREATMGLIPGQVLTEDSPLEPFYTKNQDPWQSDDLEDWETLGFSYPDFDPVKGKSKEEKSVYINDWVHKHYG
structure (smiles),measurement,value
CC(C)=CC[C@@]12OC(C)(C)O[C@@H]1CC(/C=C/c1ccc(O)cc1O)=CC2=O [Streblus C],pIC50,8.00
